Several values for one entry are separate records, joined by “and”; a condition that tells them apart may be missing. Equal values may be shown once.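 How tested: cells in 96-well plates exposed to compound for 48 hours at five concentrations. The concentration for 50% growth inhibition is given as GI50. TGI is the concentration that stops growth completely.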
Tests used:
Experiment in all cases: NCI anticancer screen, dose series, 48 h
ACHN renal = tested on: ACHN renal
HCT-15 colon = tested on: HCT-15 colon
HL-60(TB) leukemia = tested on: HL-60(TB) leukemia
M14 melanoma = tested on: M14 melanoma
MDA-MB-435 = tested on: MDA-MB-435
NCI-H522 lung = tested on: NCI-H522 lung
OVCAR-8 ovarian = tested on: OVCAR-8 ovarian
PC-3 prostate = tested on: PC-3 prostate
SK-MEL-2 melanoma = tested on: SK-MEL-2 melanoma
UACC-62 melanoma = tested on: UACC-62 melanoma

SMILES | GI50 (ACHN renal) | TGI (ACHN renal) | GI50 (HCT-15 colon) | TGI (HCT-15 colon) | GI50 (HL-60(TB) leukemia) | TGI (HL-60(TB) leukemia) | GI50 (M14 melanoma) | TGI (M14 melanoma) | GI50 (MDA-MB-435) | TGI (MDA-MB-435) | GI50 (NCI-H522 lung) | TGI (NCI-H522 lung) | GI50 (OVCAR-8 ovarian) | TGI (OVCAR-8 ovarian) | GI50 (PC-3 prostate) | TGI (PC-3 prostate) | GI50 (SK-MEL-2 melanoma) | TGI (SK-MEL-2 melanoma) | GI50 (UACC-62 melanoma) | TGI (UACC-62 melanoma)
COc1cccc(C2=C(c3c(C)n(C)c4ccccc34)C(=O)NC2=O)c1 | > 25 µM | > 25 µM | 12.1 µM | > 25 µM | > 17.1 µM | > 25 µM | 21.1 µM | > 25 µM | 7.33 µM | > 25 µM | 15.3 µM | > 25 µM | > 25 µM | > 25 µM | 16.3 µM | > 25 µM | > 25 µM | > 25 µM | 12.3 µM | > 25 µM
COc1ccc2c(=O)cc(-c3ccncc3)oc2c1OC |  | > 100 µM |  | > 100 µM |  | 50.6 µM |  | 39 µM |  | > 100 µM |  | > 100 µM |  | > 100 µM |  | > 100 µM |  | 68.2 µM |  | 32.3 µM
Cc1ccc(-c2nc(C#N)c(S(=O)(=O)n3nc(C)cc3N)o2)cc1 | 1.91 µM | 3.38 µM | 1.9 µM | 3.72 µM | 2 µM | 5.42 µM | 3.35 µM | 14.4 µM | 10.5 µM | 22.7 µM | 1.65 µM | 3.58 µM | 4.66 µM | 20.9 µM | 13.8 µM | 29.8 µM | 15 µM | 32.3 µM | 6.32 µM | 19.8 µM
O=c1ccn(C2CC(O)C(CO)O2)c(=O)[nH]1 (stereo not given) | > 5000 µM | > 5000 µM | > 5000 µM | > 5000 µM | > 5000 µM | > 5000 µM | > 5000 µM | > 5000 µM | > 5000 µM | > 5000 µM | > 5000 µM | > 5000 µM | > 5000 µM | > 5000 µM | > 5000 µM | > 5000 µM | > 5000 µM | > 5000 µM | > 5000 µM | > 5000 µM
C#CC1(O)C(COP(=O)(O)OC(COCCCCCCCCCCCCCCCCCC)COP(=O)(O)OCC2OC(n3cc(F)c(=O)[nH]c3=O)CC2O)OC(n2ccc(N)nc2=O)C1O (stereo not given) |  | > 100 µM | 0.134 µM and 0.335 µM | > 74.9 µM and 34.4 µM | 0.0952 µM and 0.21 µM | 17.9 µM and 11.7 µM | 1.53 µM and 0.218 µM | 24.3 µM and 2.74 µM |  | 3.08 µM and 5.9 µM | < 0.0377 µM and 0.0758 µM | 0.223 µM and 1.52 µM | 0.0922 µM and 0.28 µM | > 60.9 µM | 0.947 µM and 0.417 µM | 24.3 µM and 11.4 µM | < 0.049 µM and 0.432 µM | 1.88 µM and 3.48 µM |  | 11.8 µM and 7.46 µM
O=CN/C=C/c1cccc(O)c1 |  | 84.6 µM |  | > 100 µM |  | > 100 µM |  | > 88.2 µM |  | > 100 µM |  | 65.4 µM |  | > 96.1 µM |  | > 100 µM |  | > 81.6 µM |  | 63.3 µM
CCn1cnc(C[C@H](NC(=O)[C@@H](NC(=O)Nc2cc(C(F)(F)F)cc(C(F)(F)F)c2)C(C)C)C(=O)OC)c1 | 5.94 µM | > 10 µM | > 10 µM | > 10 µM | 6.18 µM | > 10 µM | 3.54 µM | > 10 µM | 3.17 µM | > 10 µM | 1.78 µM | 3.98 µM | 1.95 µM | 3.74 µM | 1.97 µM | 4.03 µM | > 10 µM | > 10 µM | 6.45 µM | > 10 µM
Nc1nc(N)c2nc(CNc3ccc(C(=O)NC(CC(=O)O)C(=O)O)cc3)cnc2n1 (stereo not given) | 2.45 µM | > 100 µM | 0.526 µM | > 100 µM | 0.756 µM | > 100 µM | 0.556 µM | > 100 µM | 0.465 µM | > 100 µM | 3.97 µM | > 100 µM | 0.589 µM | > 100 µM | 0.319 µM | > 75.7 µM | 0.412 µM | > 100 µM | 3.09 µM | > 100 µM
CCCc1cc(=O)[nH]c(-n2nc(C)cc2C)n1 | 3.97 µM | > 100 µM | 1.75 µM | > 100 µM | 2.04 µM | 20.7 µM | 2.91 µM | > 100 µM | 4.67 µM | 32.4 µM | 4.98 µM | 30.7 µM | 2.41 µM | > 100 µM | 4.29 µM | > 100 µM | 13 µM | 63 µM | 2.31 µM | 35.7 µM
O=C(Cn1c(=O)c(-c2ccccc2)nc2ccccc21)Nc1ccc(F)cc1 | 42.6 µM | > 100 µM | > 100 µM | > 100 µM | 14.1 µM | 48 µM | > 100 µM | > 100 µM | > 100 µM | > 100 µM | 65.1 µM | > 100 µM | 39.6 µM | > 100 µM | 39.9 µM | > 100 µM | 60.6 µM | > 100 µM | 67.5 µM | > 100 µM
COc1cc(NC(C)CCCN)c2ncccc2c1 (stereo not given) |  | > 100 µM | 41.9 µM and 98.4 µM | > 100 µM |  | > 37.3 µM and 28.9 µM | 16.8 µM and 43.1 µM | 34.5 µM and > 73.6 µM |  | > 100 µM |  | > 100 µM |  | > 100 µM |  | > 100 µM |  | > 89.3 µM | 20.3 µM and 45.3 µM | 51.9 µM and > 89.5 µM
